Experimental data reported in PMC11003488 (Journal of Enzyme Inhibition and Medicinal Chemistry, 2023).
Like-named read-outs stand apart in the source and are kept apart here.

Key:
Leukaemia cell lines = assay: NCI-60 SRB growth inhibition, subpanel; type: cell-based, human; details: for GI50: Homo sapiens
SK-MEL-28 = assay: NCI-60 SRB growth inhibition, one-dose and five-dose; type: cell-based; details: Homo sapiens; for GI50: SK-MEL-28; for inhibition at 10 µM: SK-MEL-28, read-out: percent growth inhibition
SK-MEL-2 = assay: as above; type: cell-based; details: Homo sapiens; for inhibition at 10 µM: SK-MEL-2, read-out: percent growth inhibition
LOX IMVI = assay: as above; type: cell-based; details: Homo sapiens; for inhibition at 10 µM: read-out: percent growth inhibition
HOP-62 = assay: as above; type: cell-based; details: Homo sapiens; for GI50: HOP-62; for inhibition at 10 µM: HOP-62, read-out: percent growth inhibition
[1] = system: Ovarian cancer cell lines; assay: NCI-60 SRB growth inhibition, subpanel; type: cell-based, human; details: for GI50: Homo sapiens
UACC-257 = assay: NCI-60 SRB growth inhibition, one-dose and five-dose; type: cell-based; details: Homo sapiens; for GI50: UACC-257; for inhibition at 10 µM: UACC-257, read-out: percent growth inhibition
[2] = system: Prostate cancer cell lines; assay: NCI-60 SRB growth inhibition, subpanel; type: cell-based, human; details: for GI50: Homo sapiens
SK-OV-3 = assay: NCI-60 SRB growth inhibition, one-dose and five-dose; type: cell-based; details: Homo sapiens; for GI50: SK-OV-3; for inhibition at 10 µM: SK-OV-3, read-out: percent growth inhibition
Melanoma cell lines = assay: NCI-60 SRB growth inhibition, subpanel; type: cell-based, human; details: for GI50: Homo sapiens
PC-3 = assay: NCI-60 SRB growth inhibition, one-dose and five-dose; type: cell-based; details: Homo sapiens; for GI50: PC-3; for inhibition at 10 µM: PC-3, read-out: percent growth inhibition
MOLT-4 = assay: as above; type: cell-based; details: Homo sapiens; for GI50: MOLT-4; for inhibition at 10 µM: MOLT-4, read-out: percent growth inhibition
Breast cancer cell lines = assay: NCI-60 SRB growth inhibition, subpanel; type: cell-based, human; details: for GI50: Homo sapiens
RXF 393 = assay: NCI-60 SRB growth inhibition, one-dose and five-dose; type: cell-based; details: Homo sapiens; for GI50: RXF 393; for inhibition at 10 µM: RXF 393, read-out: percent growth inhibition
MDA-MB-231/ATCC = assay: as above; type: cell-based; details: Homo sapiens; for GI50: MDA-MB-231
[3] = Cytotoxicity towards normal fibroblasts, safety index; type: cell-based, human; details: human, WI-38 normal fibroblast cells
[4] = system: WI-38 normal human fibroblast cells; assay: as above; type: cell-based; details: WI-38 versus cancer cell lines
NCI-H522 = assay: NCI-60 SRB growth inhibition, one-dose and five-dose; type: cell-based; details: Homo sapiens; for GI50: NCI-H522; for inhibition at 10 µM: NCI-H522, read-out: percent growth inhibition
SF-539 = assay: as above; type: cell-based; details: Homo sapiens; for GI50: SF-539; for inhibition at 10 µM: SF-539, read-out: percent growth inhibition
K-562 = assay: as above; type: cell-based; details: Homo sapiens; for GI50: K562; for inhibition at 10 µM: K562, read-out: percent growth inhibition
Renal cancer cell lines = assay: NCI-60 SRB growth inhibition, subpanel; type: cell-based, human; details: for GI50: Homo sapiens
HCC-2998 = assay: NCI-60 SRB growth inhibition, one-dose and five-dose; type: cell-based; details: Homo sapiens; for GI50: HCC 2998; for inhibition at 10 µM: HCC 2998, read-out: percent growth inhibition
NCI-H322M = assay: as above; type: cell-based; details: Homo sapiens; for inhibition at 10 µM: read-out: percent growth inhibition
CNS cancer cell lines = assay: NCI-60 SRB growth inhibition, subpanel; type: cell-based, human; details: for GI50: Homo sapiens
NSCLC cell lines = assay: NCI-60 SRB growth inhibition, subpanel; type: cell-based, human; details: for GI50: Homo sapiens
UO-31 = assay: NCI-60 SRB growth inhibition, one-dose and five-dose; type: cell-based; details: Homo sapiens; for GI50: UO-31
SF-295 = assay: as above; type: cell-based; details: Homo sapiens; for GI50: SF-295; for inhibition at 10 µM: SF-295, read-out: percent growth inhibition
NCI-H23 = assay: as above; type: cell-based; details: Homo sapiens; for GI50: NCI-H23; for inhibition at 10 µM: NCI-H23, read-out: percent growth inhibition
Colon cancer cell lines = assay: NCI-60 SRB growth inhibition, subpanel; type: cell-based, human; details: for GI50: Homo sapiens
Human VEGFR-2 = Human VEGFR-2 (Homo sapiens, UniProt P35968); assay: VEGFR-2 inhibition assay; type: biochemical
EKVX = assay: NCI-60 SRB growth inhibition, one-dose and five-dose; type: cell-based; details: Homo sapiens; for inhibition at 10 µM: read-out: percent growth inhibition

Human VEGFR-2, sequence (P35968 20-1356): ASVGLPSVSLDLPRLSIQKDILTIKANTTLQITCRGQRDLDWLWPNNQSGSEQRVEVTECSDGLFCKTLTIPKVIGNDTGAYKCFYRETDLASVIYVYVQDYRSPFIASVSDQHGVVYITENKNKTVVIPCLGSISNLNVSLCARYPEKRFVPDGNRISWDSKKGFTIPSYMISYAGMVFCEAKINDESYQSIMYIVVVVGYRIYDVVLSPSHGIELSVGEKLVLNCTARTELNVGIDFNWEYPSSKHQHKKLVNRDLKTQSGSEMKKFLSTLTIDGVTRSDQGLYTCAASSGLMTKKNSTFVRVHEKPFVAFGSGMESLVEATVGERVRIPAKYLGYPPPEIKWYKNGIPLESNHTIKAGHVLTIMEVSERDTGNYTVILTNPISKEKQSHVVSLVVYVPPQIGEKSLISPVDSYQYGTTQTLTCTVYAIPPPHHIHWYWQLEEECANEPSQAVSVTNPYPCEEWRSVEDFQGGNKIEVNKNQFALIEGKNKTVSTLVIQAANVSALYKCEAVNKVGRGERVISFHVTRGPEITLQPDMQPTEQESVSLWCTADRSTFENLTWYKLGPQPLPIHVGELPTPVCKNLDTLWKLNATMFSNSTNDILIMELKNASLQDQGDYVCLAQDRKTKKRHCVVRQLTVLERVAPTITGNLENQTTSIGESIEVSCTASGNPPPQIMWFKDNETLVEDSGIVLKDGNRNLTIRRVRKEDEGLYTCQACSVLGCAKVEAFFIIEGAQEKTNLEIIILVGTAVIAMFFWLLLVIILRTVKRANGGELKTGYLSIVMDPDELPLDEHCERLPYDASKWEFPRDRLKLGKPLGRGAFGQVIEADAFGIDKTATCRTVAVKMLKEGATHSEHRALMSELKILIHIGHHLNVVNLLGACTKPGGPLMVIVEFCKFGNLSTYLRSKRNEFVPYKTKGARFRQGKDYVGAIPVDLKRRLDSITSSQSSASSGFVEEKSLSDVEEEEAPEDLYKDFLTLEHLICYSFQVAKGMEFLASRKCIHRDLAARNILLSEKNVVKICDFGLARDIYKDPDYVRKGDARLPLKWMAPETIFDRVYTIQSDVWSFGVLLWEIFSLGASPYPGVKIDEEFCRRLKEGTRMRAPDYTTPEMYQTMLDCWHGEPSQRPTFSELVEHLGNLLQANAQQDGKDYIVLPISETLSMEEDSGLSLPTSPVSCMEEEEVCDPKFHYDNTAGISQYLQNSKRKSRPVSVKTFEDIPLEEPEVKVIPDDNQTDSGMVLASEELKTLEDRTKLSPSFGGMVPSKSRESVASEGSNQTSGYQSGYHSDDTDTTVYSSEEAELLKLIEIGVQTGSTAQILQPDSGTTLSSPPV

## Cc1ccc(CNc2cccc(C(=O)/C=C/c3cccnc3)c2)cc1 [Compound 5a, (E)-1–(3-((4-methylbenzyl)amino)phenyl)-3-(pyridin-3-yl)prop-2-en-1-one]
Leukaemia cell lines; read-out: GI50 MG-MID
  GI50: 3.34 µM
SK-MEL-28
  GI50: 14.7 µM
  inhibition at 10 µM: 71.6%
SK-MEL-2; SK-MEL-2
  GI50: 14.3 µM
SK-MEL-2
  inhibition at 10 µM: 35.9%
LOX IMVI
  GI50: 1.88 µM
  inhibition at 10 µM: 195%
HOP-62
  GI50: 15.6 µM
  inhibition at 10 µM: 15.1%
[1]; read-out: GI50 MG-MID
  GI50: 11.4 µM
UACC-257
  GI50: 14.4 µM
  inhibition at 10 µM: 39.6%
[2]; read-out: GI50 MG-MID
  GI50: 13.8 µM
SK-OV-3
  GI50: 16.1 µM
  inhibition at 10 µM: 60.2%
Melanoma cell lines; read-out: GI50 MG-MID
  GI50: 10.6 µM
PC-3
  GI50: 14.2 µM
  inhibition at 10 µM: 84.8%
MOLT-4
  GI50: 3.54 µM
  inhibition at 10 µM: 57.3%
Breast cancer cell lines; read-out: GI50 MG-MID
  GI50: 9.21 µM
RXF 393
  GI50: 12.3 µM
  inhibition at 10 µM: 67.9%
MDA-MB-231/ATCC
  GI50: 11.3 µM
MDA-MB-231/ATCC; MDA-MB-231, read-out: percent growth inhibition
  inhibition at 10 µM: 110%
[3]
  GI50 at 48 h: > 100 µM
[4]
  Safety index: >1
NCI-H522
  GI50: 13.8 µM
  inhibition at 10 µM: 134%
SF-539
  GI50: 15.6 µM
  inhibition at 10 µM: 152%
K-562
  GI50: 3.09 µM
  inhibition at 10 µM: 93.6%
Renal cancer cell lines; read-out: GI50 MG-MID
  GI50: 13.3 µM
HCC-2998
  GI50: 14.1 µM
  inhibition at 10 µM: 52.8%
NCI-H322M
  GI50: 15.7 µM
  inhibition at 10 µM: 19.6%
CNS cancer cell lines; read-out: GI50 MG-MID
  GI50: 13.2 µM
NSCLC cell lines; read-out: GI50 MG-MID
  GI50: 13.7 µM
UO-31
  GI50: 11.7 µM
UO-31; UO-31, read-out: percent growth inhibition
  inhibition at 10 µM: 47.5%
SF-295
  GI50: 14 µM
  inhibition at 10 µM: 58.9%
NCI-H23
  GI50: 12.2 µM
  inhibition at 10 µM: 47.9%
Colon cancer cell lines; read-out: GI50 MG-MID
  GI50: 8.84 µM
Human VEGFR-2
  IC50: 2 ± 0.023 µM
EKVX
  GI50: 12.8 µM
  inhibition at 10 µM: 52.3%

## O=C(/C=C/c1cccnc1)c1cccc(NCc2csc3ccccc23)c1 [Compound 5d, (E)-1–(3-((benzo[b]thiophen-3-ylmethyl)amino)phenyl)-3-(pyridin-3-yl)prop-2-en-1-one]
Leukaemia cell lines; read-out: GI50 MG-MID
  GI50: 2.76 µM
Leukaemia cell lines; read-out: MG-MID GI50
  GI50: 2.76 µM
Leukaemia cell lines; full panel MG-MID / leukaemia subpanel MG-MID
  SI (Selectivity Index): 1.72
SK-MEL-28
  GI50: 3.55 µM
  inhibition at 10 µM: 145%
SK-MEL-2
  inhibition at 10 µM: 74%
LOX IMVI
  GI50: 1.69 µM
  inhibition at 10 µM: 198%
HOP-62
  GI50: 10.2 µM
  inhibition at 10 µM: 65.2%
[1]; read-out: GI50 MG-MID
  GI50: 5.3 µM
[1]; read-out: MG-MID GI50
  GI50: 5.3 µM
[1]; full panel MG-MID / Ovarian Cancer subpanel MG-MID
  SI (Selectivity Index): 0.89
UACC-257
  GI50: 5.58 µM
  inhibition at 10 µM: 105%
[2]; read-out: GI50 MG-MID
  GI50: 5.56 µM
[2]; read-out: MG-MID GI50
  GI50: 5.56 µM
[2]; full panel MG-MID / Prostatic Cancer subpanel MG-MID
  SI (Selectivity Index): 0.85
SK-OV-3
  GI50: 11.8 µM
  inhibition at 10 µM: 35.8%
Melanoma cell lines; read-out: GI50 MG-MID
  GI50: 3.76 µM
Melanoma cell lines; read-out: MG-MID GI50
  GI50: 3.76 µM
Melanoma cell lines; full panel MG-MID / Melanoma subpanel MG-MID
  SI (Selectivity Index): 1.26
PC-3
  GI50: 3.76 µM
  inhibition at 10 µM: 99.2%
MOLT-4
  GI50: 3.16 µM
  inhibition at 10 µM: 114%
Breast cancer cell lines; read-out: GI50 MG-MID
  GI50: 2.69 µM
Breast cancer cell lines; read-out: MG-MID GI50
  GI50: 2.69 µM
Breast cancer cell lines; full panel MG-MID / Breast Cancer subpanel MG-MID
  SI (Selectivity Index): 1.76
RXF 393
  GI50: 4.67 µM
  inhibition at 10 µM: 177%
MDA-MB-231/ATCC
  GI50: 2.67 µM
[3]
  GI50 at 48 h: > 100 µM
[4]
  Safety index: >1
NCI-H522
  GI50: 1.78 µM
  inhibition at 10 µM: 170%
SF-539
  GI50: 6.15 µM
  inhibition at 10 µM: 171%
K-562
  GI50: 3.14 µM
  inhibition at 10 µM: 111%
Renal cancer cell lines; read-out: GI50 MG-MID
  GI50: 6.46 µM
Renal cancer cell lines; read-out: MG-MID GI50
  GI50: 6.46 µM
Renal cancer cell lines; full panel MG-MID / Renal Cancer subpanel MG-MID
  SI (Selectivity Index): 0.73
HCC-2998
  GI50: 3.66 µM
  inhibition at 10 µM: 188%
NCI-H322M
  GI50: 11.5 µM
  inhibition at 10 µM: 42.6%
CNS cancer cell lines; read-out: GI50 MG-MID
  GI50: 5.4 µM
CNS cancer cell lines; read-out: MG-MID GI50
  GI50: 5.4 µM
CNS cancer cell lines; full panel MG-MID / CNS Cancer subpanel MG-MID
  SI (Selectivity Index): 0.88
NSCLC cell lines; read-out: GI50 MG-MID
  GI50: 6.83 µM
NSCLC cell lines; read-out: MG-MID GI50
  GI50: 6.83 µM
NSCLC cell lines; full panel MG-MID / NSCLC subpanel MG-MID
  SI (Selectivity Index): 0.69
UO-31
  GI50: 4.94 µM
SF-295
  GI50: 5.12 µM
  inhibition at 10 µM: 92.9%
NCI-H23
  GI50: 3.94 µM
  inhibition at 10 µM: 139%
Colon cancer cell lines; read-out: GI50 MG-MID
  GI50: 3.93 µM
Colon cancer cell lines; read-out: MG-MID GI50
  GI50: 3.93 µM
Colon cancer cell lines; full panel MG-MID / Colon Cancer subpanel MG-MID
  SI (Selectivity Index): 1.21
Human VEGFR-2
  IC50: 1.46 ± 0.009 µM
EKVX
  GI50: 3.98 µM
  inhibition at 10 µM: 106%
